Each structure is given as a SMILES string.

The target of data set [1] is Aldo-keto reductase family 1 member B1 (Rattus norvegicus, UniProt P07943). Nature of the data set: Inhibition of AKR1B1 in rat lenses.
Data set [2] concerns the target T1, AKR1A1 (aldo-keto reductase family 1 member A1) (Rattus norvegicus, UniProt P51635).
T1 sequence (P51635 whole entry): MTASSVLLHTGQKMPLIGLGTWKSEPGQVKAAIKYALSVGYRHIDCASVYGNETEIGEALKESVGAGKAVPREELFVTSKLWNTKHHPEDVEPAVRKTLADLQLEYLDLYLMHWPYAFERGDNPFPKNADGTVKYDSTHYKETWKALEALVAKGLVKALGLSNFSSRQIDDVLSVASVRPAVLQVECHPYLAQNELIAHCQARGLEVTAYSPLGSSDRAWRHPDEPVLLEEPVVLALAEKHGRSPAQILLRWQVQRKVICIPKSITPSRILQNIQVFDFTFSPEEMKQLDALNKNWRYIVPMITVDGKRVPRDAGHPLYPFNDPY
Nature of the data set: Inhibition of AKR1A1 in rat kidney at 10 uM relative to control.

Data set [3] is described as follows: Antioxidant activity assessed as DPPH radical scavenging activity at 100 uM relative to control. In kind it is functional. (Loss of DPPH colour is used to gauge radical scavenging.)
A short description of data set [4]: n-octanol/aqueous buffer distribution coefficient, logD of compound at pH 7.4 by shake flask assay based HPLC-MS analysis. The format is physicochemical.
A short description of data set [5]: Antioxidant activity assessed as DPPH radical scavenging activity at 10 uM relative to control. The format is functional.
A short description of data set [6]: Antioxidant activity assessed as DPPH radical scavenging activity at 50 uM relative to control. In kind it is functional.

By IC50 is commonly meant the concentration that inhibits the measured activity by half. Low values mean inhibition by little substance, high ones a need for much substance. What is called inhibition is the drop in the measured response relative to a control, in per cent. Read a low inhibition as little suppression. The compound `O=C(O)c1cn(Cc2ccc(Cl)cc2)c2ccccc2c1=O` gave a 50% inhibitory concentration (IC50) in data set [1] of 321 nM. For the same compound, at 10 µM the inhibition in data set [2] was 18.3%. Moreover, in data set [3], the Activity stood at 28.7%.

In general, logD refers to the decadic logarithm of the distribution of all forms, ionised or not, between an organic phase and buffer at a given pH. Turning to `CONC(=O)c1cn(Cc2ccccc2)c2ccccc2c1=O`, in data set [1], it took 12800 nM to reach half-maximal inhibition (IC50). In data set [2], testing at 10 µM gave an inhibition of 5.1%. Also, in data set [3], the Activity was found to be 25.2%. For the same compound, the logD in data set [4] was 1.19.

Regarding `O=C(NO)c1cn(Cc2ccc(O)c(O)c2)c2ccccc2c1=O`, in data set [1], the 50% inhibitory concentration (IC50) was 287 nM. Moreover, in data set [2], the inhibition at 10 µM stood at 25.4%. Moreover, the Activity in data set [5] worked out at 51.1%; in data set [3] it was 88.1%; in data set [6] it was 65.1%.

In data set [1], `CS(=O)(=O)NC(=O)c1cn(Cc2cc(O)cc(O)c2)c2ccccc2c1=O` returned an IC50 of 112 nM. Also, at 10 µM the inhibition in data set [2] was 24.7%. Further, the results for the Activity in data set [5], in data set [3] and in data set [6] were 33.6%, 79.4% and 64.7%, respectively.

Consider `CC(/C=C1\SC(=S)N(CC(=O)O)C1=O)=C\c1ccccc1`, for which, in data set [2], the inhibition at 10 µM stood at 43.1%.

`CS(=O)(=O)NC(=O)c1cn(Cc2ccccc2)c2ccccc2c1=O` gave an IC50 in data set [1] of 15000 nM. Also, in data set [2], testing at 10 µM gave an inhibition of 7.9%. Moreover, the Activity in data set [3] was found to be 28.7%. For the same compound, the logD in data set [4] was found to be 0.53.

`O=C(NO)c1cn(Cc2ccc(O)cc2)c2ccccc2c1=O` returned an IC50 in data set [1] of 107 nM. The compound also displayed an inhibition at 10 µM in data set [2] of 34.6%. Further, the Activity in data set [5] was found to be 32.3%; in data set [3] it was 74.9%; in data set [6], 51.1%.

For `O=C(NO)c1cn(Cc2cc(O)cc(O)c2)c2ccccc2c1=O`, in data set [1], the half-maximal inhibitory concentration (IC50) turned out to be 65 nM. This compound also registered an inhibition at 10 µM in data set [2] of 27.4%. The Activity in data set [5] worked out at 57.8%; in data set [3] it was 91%; in data set [6], 72.4%. Also, the logD in data set [4] is 1.32.

In data set [1], `O=C(NO)c1cn(Cc2ccc(Cl)cc2)c2ccccc2c1=O` had a concentration for half-maximal inhibition (IC50) of 626 nM. 10 µM produced 26.5% inhibition in data set [2]. The Activity in data set [3] stood at 31.7%.

For the compound `O=C(O)c1cn(Cc2ccc(Br)cc2)c2ccccc2c1=O`, the IC50 in data set [1] was 1530 nM. For the same compound, 10 µM produced 20.1% inhibition in data set [2]. Further, in data set [3], the Activity came to 25.4%.

`CONC(=O)c1cn(Cc2cc(O)cc(O)c2)c2ccccc2c1=O` yielded an IC50 in data set [1] of 689 nM. The inhibition at 10 µM in data set [2] worked out at 21.7%. The Activity is 42.7% in data set [5], 88.7% in data set [3] and 55.8% in data set [6]. The logD in data set [4] stood at 0.73.

On to `COc1cc(Cn2cc(C(=O)O)c(=O)c3ccccc32)cc(OC)c1`, for which the half-maximal inhibitory concentration (IC50) in data set [1] came out at 9870 nM. Also, the inhibition at 10 µM in data set [2] stood at 30.1%. Moreover, in data set [3], the Activity was determined as 47.6%.

In the case of `COc1ccc(Cn2cc(C(=O)O)c(=O)c3ccccc32)cc1OC`, in data set [1], the IC50 is 10600 nM. This compound displayed an inhibition at 10 µM in data set [2] of 24.8%. Further, the Activity in data set [3] stood at 32.2%.

Regarding `O=C(O)c1cn(Cc2ccc(O)cc2)c2ccccc2c1=O`, the midpoint of inhibition in data set [1], the IC50, lay at 98 nM. Further, in data set [2], the inhibition at 10 µM is 37.5%. The Activity was found to be 14.6% in data set [5], 62.7% in data set [3] and 30.4% in data set [6].

In the case of `COc1cc(Cn2cc(C(=O)NO)c(=O)c3ccccc32)cc(OC)c1`, inhibition in data set [1] was half-maximal at 15600 nM (IC50). The same compound gave an inhibition at 10 µM in data set [2] of 17.2%. Also, the Activity in data set [3] turned out to be 41.3%.

In data set [1], `COc1ccc(Cn2cc(C(=O)NO)c(=O)c3ccccc32)cc1` gave an IC50 of 12500 nM. The compound further showed an inhibition at 10 µM in data set [2] of 7.6%. The Activity in data set [3] was found to be 34.1%.

In data set [1], `COc1ccc(Cn2cc(C(=O)O)c(=O)c3ccccc32)cc1` returned an IC50 of 12000 nM. The Activity in data set [3] was found to be 30.5%.

In the case of `O=C(O)c1cn(Cc2ccc(O)c(O)c2)c2ccccc2c1=O`, the IC50 in data set [1] was determined as 251 nM. In data set [2], this compound gave an inhibition at 10 µM of 38.6%. Further, the Activity is 44.9% in data set [5], 87.1% in data set [3] and 61.9% in data set [6].

Turning to `O=C(O)c1cn(Cc2cc(O)cc(O)c2)c2ccccc2c1=O`, inhibition in data set [1] was half-maximal at 57 nM (IC50). In data set [2], the inhibition at 10 µM was 36.6%. The figures for the Activity in data set [5], in data set [3] and in data set [6] were 51.7%, 92.4% and 71.1%, respectively. This compound also displayed a logD in data set [4] of 0.57.

As to `COc1ccc(Cn2cc(C(=O)NO)c(=O)c3ccccc32)cc1OC`, in data set [1], the IC50 is 13600 nM. In addition, in data set [2], the inhibition at 10 µM is 10.5%. Also, in data set [3], the Activity was 39.1%.

For the compound `O=C(O)c1cn(Cc2ccccc2)c2ccccc2c1=O`, in data set [1], the half-inhibitory concentration (IC50) is 11000 nM. The same compound showed an inhibition at 10 µM in data set [2] of 5.8%. Also, the Activity in data set [3] turned out to be 20.3%. The compound further showed a logD in data set [4] of 0.82.

For `O=C(O)c1cn(Cc2ccc(F)cc2)c2ccccc2c1=O`, in data set [1], half-maximal inhibition (IC50) was put at 154 nM. Further, 10 µM produced 30.2% inhibition in data set [2]. Moreover, the Activity in data set [3] came out at 21.4%.

In data set [1], `O=C(NO)c1cn(Cc2ccccc2)c2ccccc2c1=O` registered an IC50 of 12600 nM. The compound further yielded an inhibition at 10 µM in data set [2] of 7.1%. The Activity in data set [3] was 27.1%. The same compound gave a pH-dependent lipophilicity (logD) in data set [4] of 1.53.

`O=C(NO)c1cn(Cc2ccc(Br)cc2)c2ccccc2c1=O` displayed an IC50 in data set [1] of 2490 nM. This compound also gave an inhibition at 10 µM in data set [2] of 17.6%. Besides, the Activity in data set [3] turned out to be 27.6%.

Regarding `O=C(NO)c1cn(Cc2ccc(F)cc2)c2ccccc2c1=O`, the IC50 in data set [1] was 237 nM. In addition, the inhibition at 10 µM in data set [2] was found to be 24.1%. Also, in data set [3], the Activity came out at 32.1%.

For `Cc1c(C)c2c(c(C)c1O)CCC(C)(C(=O)O)O2` (stereo not drawn), the results for the Activity in data set [5], in data set [3] and in data set [6] were 77.2%, 94.2% and 84.1%, respectively.

The values above are taken from ChEMBL document CHEMBL4619717, “Novel quinolin-4(1H)-one derivatives as multi-effective aldose reductase inhibitors for treatment of diabetic complications: Synthesis, biological evaluation, and molecular modeling studies” (Bioorg Med Chem Lett, 2020).
